Data reported in US20260191244A1, “NOVEL FLAVOR COMPOUNDS” (INTERNATIONAL FLAVORS & FRAGRANCES INC., priority 2022, published 2026).

Columns and labels:
[1] = Flavor evaluation in monosodium glutamate (MSG) solution (5000 ppm)
Protocol: A monosodium glutamate (MSG) solution (5000 ppm) was prepared in water. The flavor profile of the MSG solution with added Structure A4 is reported in the following:
As used herein, the term “synergistic umami” refers to the umami effect of the Structure A4 and MSG combination that is stronger than the added umami effect of individual Structure A4 and MSG. […]

[2] = Summary statements over all flavor evaluations
[3] = Flavor evaluation in Ribotide solution (1000 ppm); conditions: 2 ppm added in Ribotide solution (1000 ppm)
Text: The Structure A4 and B4 mixture of 50:50 ratio ([…]) was further evaluated in Ribotide® (1000 ppm).

[4] = Flavor evaluation of water solutions; conditions: for Flavor Profile: water solution
Protocol: A series of water solutions of N-(4-methoxyphenyl)-2-methyl-2-(1-methylcyclohexyl)propenamide (Structure A4) were prepared and evaluated for flavor. The flavor profile is reported in the following:
Preparation and Evaluation of N-(4-Methoxyphenyl)-2-methyl-2-(1-methylcyclohexyl)propenamide (Structure A4) and 1-(tert-Butyl)-N-(4-methoxyphenyl)cyclohexane-1-carboxamide (Structure B4) Mixtures of Different Ratios: Mixtures of N-(4-methoxyphenyl)-2-methyl-2-(1-methylcyclohexyl)propenamide (Structure A4) and 1-(tert-butyl)-N-(4-methoxyphenyl)cyclohexane-1-carboxamide (Structure B4) were prepared by mixing two compounds at different ratios. “Ratio” refers to the weight ratio of Structure A4 and Structure B4. Water solutions of the mixtures (375 ppb) were prepared and evaluated for flavor in water, MSG solution (5000 ppm) and a salt solution (containing NaCl of 3750 ppm, Ribotide® of 35 ppm and MSG of 840 ppm), respectively. Water, MSG solution and the salt solution were each used as base controls.

SMILES: COc1ccc(NC(=O)C(C)(C)C2(C)CCCCC2)cc1 [Structure A4, N-(4-Methoxyphenyl)-2-methyl-2-(1-methylcyclohexyl)propenamide]
- Umami Strength ([1]; MSG solution (5000 ppm) with added Structure A4 1 ppm): Synergistic umami of Structure A4 and MSG, lingering umami
- Umami Strength ([1]; MSG solution (5000 ppm) with added Structure A4 2 ppm): Synergistic umami of Structure A4 and MSG, lingering umami
- Umami Strength ([1]; MSG solution (5000 ppm) with added Structure A4 5 ppm): Synergistic umami of Structure A4 and MSG, strong cooling
- Umami Strength ([1]; MSG solution (5000 ppm) with added Structure A4 10 ppm): Synergistic umami of Structure A4 and MSG, strong cooling
- Umami Strength ([1]; MSG solution (5000 ppm) with added Structure A4 15 ppm): Synergistic umami of Structure A4 and MSG, strong cooling
- Umami Strength ([1]; MSG solution (5000 ppm) with added Structure A4 100 ppb): Added effect of Structure A4 and MSG
- Umami Strength ([1]; MSG solution (5000 ppm) with added Structure A4 200 ppb): Synergistic umami of Structure A4 and MSG, lingering umami
- Umami Strength ([1]; MSG solution (5000 ppm) with added Structure A4 375 ppb): Synergistic umami of Structure A4 and MSG, lingering umami
- Umami Strength ([1]; MSG solution (5000 ppm) with added Structure A4 500 ppb): Synergistic umami of Structure A4 and MSG, lingering umami
- Umami Strength ([1]; MSG solution (5000 ppm) with added Structure A4 750 ppb): Synergistic umami of Structure A4 and MSG, lingering umami
- Synergistic umami with MSG ([1]; Structure A4 ranging from 200 ppb to 15 ppm and MSG (5000 ppm)): Synergistic umami was achieved
- Umami character ([2]; in all evaluations): provided upfront and lingering umami character
- Synergistic umami ([2]; when combined with Structure B4 and/or an additional umami compound): achieved synergistic umami
- Synergistic umami in Ribotide solution [3]: synergistic umami was also achieved
- Flavor Profile ([4]; Structure A4 1 ppm): Strong umami, cooling, tingly, tongue scratching
- Flavor Profile ([4]; Structure A4 2 ppm): Strong and lingering umami, good mouthfeel, cooling, tingling
- Flavor Profile ([4]; Structure A4 5 ppm): Strong and lingering umami, moderate and lingering cooling, lingering bitter, drying
- Flavor Profile ([4]; Structure A4 10 ppm): Moderate umami, moderate cooling, lingering bitter, tingling, brackish linger
- Flavor Profile ([4]; Structure A4 15 ppm): Moderate umami, moderate cooling, lingering bitter, creamy, mineral, drying
- Flavor Profile ([4]; Structure A4 100 ppb): Very slight bitter, minimal cooling, drying linger, minimal umami
- Flavor Profile ([4]; Structure A4 200 ppb): Slight cooling, slight bitter, drying, very slight umami
- Flavor Profile ([4]; Structure A4 375 ppb): Slight bitter, cooling, umami, linger
- Flavor Profile ([4]; Structure A4 500 ppb): Clear and moderate umami, slight bitter, cooling, linger
- Flavor Profile ([4]; Structure A4 750 ppb): Clear and moderate umami, cooling, slightly soapy, slightly waxy
- Umami in water ([4]; water solutions, all concentrations 100 ppb to 15 ppm): exhibited umami

SMILES: COc1ccc(NC(=O)C2(C(C)(C)C)CCCCC2)cc1 [Structure B4, 1-(tert-butyl)-N-(4-methoxyphenyl)cyclohexane-1-carboxamide]
- Flavor in water ([4]; 375 ppb in water): slight umami, slight sweetness and bitter linger
